In patent publication US20220401564A1 (DANA-FARBER CANCER INSTITUTE, INC., priority 2019, published 2022):
pIC50: −log10 of the molar value.

Key:
VHL = molecular target: T1, VHL (Homo sapiens, UniProt P40337); assay: Cellular VHL engagement assay (BRD4BD2-GFP / mCherry reporter cells); format: cell-based; conditions: with 250 nM AT1, 5 h
T1 construct: Cells stably expressing the BRD4BD2-GFP with mCherry reporter (40) were seeded; endogenous in cells
Experimental: Cells stably expressing the BRD4BD2-GFP with mCherry reporter (40) were seeded at 30-50% confluency in 384-well plates with 50 μL per well of FluoroBrite™ DMEM media (Thermo Fisher Scientific, A18967) supplemented with 10% FBS a day before compound treatment. Compounds and 250 nM AT1((2S,4R)-1-(2R)-2-Acetamido-3-[[6-[2-[(6S)-4-(4-chlorophenyl)-2,3,9-trimethyl-6H-thieno[3,2-f][1,2,4]triazolo[4,3-a][1,4]diazepin-6-yl]acetamido]hexyl]thio]-3-methylbutanoyl]-4-hydroxy-N-[4-(4-methylthiazol-5-yl)benzyl)pyrrolidinine-2-carboxamide) were dispensed using a D300e Digital Dispenser (HP), normalized to 0.5% DMSO, and incubated with the cells for 5 h. The assay plate was imaged immediately using an Acumen® High Content Imager (TTP Labtech) with 488 nm and 561 nm lasers in a […] grid per well format. The resulting images were analyzed using CellProfiler™.
A series of image analysis steps (an ‘image analysis pipeline’) was constructed. First, the red and green channels were aligned and cropped to target the middle of each well (to avoid analysis of the heavily clumped cells at the edges). A background illumination function was calculated for both red and green channels of each well individually and subtracted to correct for illumination variations across the 384-well plate from various sources of error. An additional step was then applied to the green channel to suppress the analysis of large auto fluorescent artifacts and enhance the analysis of cell specific fluorescence by way of selecting for objects under a given size (30 A.U.) and with a given shape (speckles). mCherry-positive cells were then identified in the red channel by filtering for objects 8-60 pixels in diameter and by using intensity to distinguish between clumped objects. The green channel was then segmented into GFP positive and negative areas and objects were labeled as GFP positive if at least 40% of it overlapped with a GFP positive area. The fraction of GFP-positive cells/mCherry-positive cells in each well was then calculated, and the green and red images were rescaled for visualization.

HDAC3 = HDAC3 (Homo sapiens, UniProt O15379); assay: Change in cellular protein abundance (TMT proteomics) in Kelly cells; format: cell-based; set-up: relative change in relative protein abundance with treatment of Kelly cells; endogenous in cells; host or cells: Kelly cells
Experimental: (§1) Lysis buffer (8 M Urea, 50 mM NaCl, 50 mM 4-(2hydroxyethyl)-1-piperazineethanesulfonic acid (EPPS) pH 8.5, protease and phosphatase inhibitors from Roche®) were added to the cell pellets and homogenized by 20 passes through a 21 gauge (1.25 in. long) needle to achieve a cell lysate with a protein concentration between 1-4 mg mL-1. A micro-BCA assay (Pierce™) was used to determine the final protein concentration in the cell lysate. 200 μg of protein for each sample were reduced and alkylated as described in Donovan et al., Elife 7:e38430 (2018).
Proteins were precipitated using methanol/chloroform. Four volumes of methanol were added to the cell lysate, followed by one volume of chloroform, and finally three volumes of water. The mixture was vortexed and centrifuged to separate the chloroform phase from the aqueous phase. The precipitated protein was washed with three volumes of methanol, centrifuged and the resulting washed precipitated protein was allowed to air dry. The precipitated protein was resuspended in 4 M Urea, 50 mM HEPES pH 7.4, followed by dilution to 1 M urea with the addition of 200 mM EPPS, pH 8. Proteins were first digested with LysC (1:50; enzyme:protein) for 12 hours at room temperature. The LysC digestion was diluted to 0.5 M Urea with 200 mM EPPS pH 8 followed by digestion with trypsin (1:50; enzyme:protein) for 6 hours at 37° C. Tandem mass tag (TMT) reagents (Thermo Fisher Scientific) were dissolved in anhydrous acetonitrile (ACN) according to manufacturer's instructions.
Anhydrous ACN was added to each peptide sample to a final concentration of 30% v/v, and labeling was induced with the addition of TMT reagent to each sample at a ratio of 1:4 peptide:TMT label. The 10-plex labeling reactions were performed for 1.5 hours at room temperature and the reaction quenched by the addition of hydroxylamine to a final concentration of 0.3% for 15 minutes at room temperature. The sample channels were combined at a 1:1:1:1:1:1:1:1:1:1:1 ratio, desalted using Cis solid phase extraction cartridges (Waters®) and analyzed by LC-MS for channel ratio comparison. Samples were then combined using the adjusted volumes determined in the channel ratio analysis and dried down in a speed vacuum. The combined sample was then resuspended in 1% formic acid, and acidified (pH 2-3) before being subjected to desalting with C18 SPE (Sep-Pak®, Waters®). Samples were then offline fractionated into 96 fractions by high pH reverse-phase HPLC (Agilent® LC1260) through an aeris peptide xb-c18 column (Phenomenex®) with mobile phase A containing 5% acetonitrile and 10 mM NH4HCO3 in LC-MS grade H2O, and mobile phase B containing 90% acetonitrile and 10 mM NH4HCO3 in LC-MS grade H2O (both pH 8.0). The 96 resulting fractions were then pooled in a non-continuous manner into 24 fractions and these fractions were used for subsequent mass spectrometry analysis.
Data were collected using an Orbitrap Fusion™ Lumos™ mass spectrometer (Thermo Fisher Scientific, San Jose, Calif., USA) coupled with a Proxeon EASY-nLC™ 1200 LC pump (Thermo Fisher Scientific). Peptides were separated on an EasySpray™ ES803 75 μm inner diameter microcapillary column (ThermoFisher Scientific).
Each analysis used an MS3-based TMT method as described previously. The data were acquired using a mass range of m z 340-1350, resolution 120,000, automatic gain control (AGC) target 1×10^6, maximum injection time 100 ms, dynamic exclusion of 120 seconds for the peptide measurements in the Orbitrap Fusion™ Lumos™ mass spectrometer. Data dependent MS2 spectra were acquired in the ion trap with a normalized collision energy (NCE) set at 55%, AGC target set to 1.5×10^5 and a maximum injection time of 150 ms. […]

[1] = test system: other identified HDAC proteins; assay: as above; format: cell-based, human; conditions: 1 μM, 5 hours, vs DMSO
Experimental: as §1
Proteins were precipitated using methanol/chloroform. Four volumes of methanol were added to the cell lysate, followed by one volume of chloroform, and finally three volumes of water. The mixture was vortexed and centrifuged to separate the chloroform phase from the aqueous phase. […]
Anhydrous ACN was added to each peptide sample to a final concentration of 30% v/v, and labeling was induced with the addition of TMT reagent to each sample at a ratio of 1:4 peptide:TMT label. […] The sample channels were combined at a 1:1:1:1:1:1:1:1:1:1:1 ratio, desalted using Cis solid phase extraction cartridges (Waters®) and analyzed by LC-MS for channel ratio comparison. Samples were then combined using the adjusted volumes determined in the channel ratio analysis and dried down in a speed vacuum. […]

Sequence of HDAC3 (O15379 whole entry): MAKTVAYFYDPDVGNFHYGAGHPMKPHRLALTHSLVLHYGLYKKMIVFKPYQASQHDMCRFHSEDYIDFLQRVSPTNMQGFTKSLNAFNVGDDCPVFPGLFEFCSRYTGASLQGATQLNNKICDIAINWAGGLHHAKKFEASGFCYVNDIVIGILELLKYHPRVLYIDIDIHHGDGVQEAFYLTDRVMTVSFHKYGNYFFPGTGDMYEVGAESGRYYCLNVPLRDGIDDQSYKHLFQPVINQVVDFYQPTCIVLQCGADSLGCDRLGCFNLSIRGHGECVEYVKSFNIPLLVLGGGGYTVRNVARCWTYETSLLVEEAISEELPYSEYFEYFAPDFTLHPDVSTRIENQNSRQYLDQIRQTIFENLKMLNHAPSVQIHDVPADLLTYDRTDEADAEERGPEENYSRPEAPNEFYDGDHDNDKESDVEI
T1 sequence (P40337 whole entry, species assumed): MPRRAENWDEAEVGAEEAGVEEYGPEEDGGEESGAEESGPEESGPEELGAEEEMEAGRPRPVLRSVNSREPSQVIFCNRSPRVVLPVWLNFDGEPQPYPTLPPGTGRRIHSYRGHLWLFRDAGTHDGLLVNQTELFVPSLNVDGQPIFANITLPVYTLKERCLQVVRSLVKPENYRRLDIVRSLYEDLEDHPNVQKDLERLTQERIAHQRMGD

`Cc1ncsc1-c1ccc([C@H](C)NC(=O)[C@@H]2C[C@@H](O)CN2C(=O)[C@@H](NC(=O)CCOCCN(CCc2c[nH]c3ccccc23)Cc2ccc(/C=C/C(=O)NO)cc2)C(C)(C)C)cc1` [Compound 1, (2S,4R)-1-((S)-2-(3-(2-((2-(1H-indol-3-yl)ethyl)(4-((E)-3-(hydroxyamino)-3-oxoprop-1-en-1-yl)benzyl)amino)ethoxy)propanamido)-3,3-dimethylbutanoyl)-4-hydroxy-N—((S)-1-(4-(4-methylthiazol-5-yl)phenyl)ethyl)pyrrolidine-2-carboxamide] was tested, and the pIC50 (VHL) was 4.77, the “cellular HDAC3 protein levels, change in relative protein abundance (heat map FIG. 2)” value (HDAC3; 1 μM, 5 hours, vs DMSO) was “down-regulation” and the “HDAC3 protein levels, relative protein abundance compared to DMSO control” value (HDAC3; scatter plots FIG. 1 and FIG. 3) was “significant and selective reduction”. For the same molecule, the “cellular protein levels of the other identified HDAC proteins (heat map FIG. 2)” value [1] was “did not affect”.
